The values below come from US7745644B2, “Antibiotic compounds” (Merck Sharp & Dohme Corp., priority 2003, dated 2010).

In brackets after ≈: the same amount, converted by molar mass.

One assay concerns E. coli. The assay can be described thus: Microbroth dilution MIC assay. It counts as cell-based, Escherichia coli. Conditions: various strains of E. coli; cell wall permeable strain. As for the experimental part: (§1) The strains used are isolates from either the Merck Culture Collection, the Merck Clinical Culture Collection or from Clinical Trials. The strain of Haemophilus influenzae is a mouse pathogen used for in vivo testing at Merck. The Escherichia coli strain is a cell wall permeable strain. The Candida albicans strain is used as a control. These culture are maintained as frozen stocks at −80° C. in a.) Microbank beads; b.) 2× Skim Milk; or c.) in 2× Trypticase Soy Broth+15% glycerol/50% horse serum (Haemophilus and Streptococcus pneumoniae).
(§2) Selected isolates are subcultured onto either Chocolate Agar Plates (Haemophilus influenzae), onto Trypticase Soy+5% Sheep Blood Agar Plates (Streptococcus pneumoniae, Staphylococcus aureus, Escherichia coli, Enterococcus, Bacillus) or onto Sabouraud Dextrose Agar (Candida) and incubated at 35° C. Haemophilus and Streptococcus pneumoniae are incubated in 5% CO2; all other isolates are incubated in ambient air. Isolates are subcultured 2× before assay.
(§3) Colonies are selected from plates and used to prepare an inoculum equivalent to a 0.5 McFarland standard in Trypticase Soy Broth. […]
(§4) All wells of microtiter plates are inoculated with (saline-diluted) culture using the MIC 2000 System, an automated plate inoculating device which delivers an inoculum of 1.5 TL per well. […] Results are recorded after 22-24-hours' incubation. Plates were read to no growth.
In general terms: Dilution methods test growth across graded concentrations, often in twofold steps.

The next assay relates to B. subtilis. The assay can be described thus: Microbroth dilution MIC assay. The following applies: various strains of B. subtilis. Format: cell-based, Bacillus subtilis. The procedure: as §1, §2, §3, §4
The subject of the next assay is S. epidermidis. The assay is described as follows: Microbroth dilution MIC assay. It counts as cell-based, Staphylococcus epidermidis. Conditions: macrolide-resistant S. epidermidis.
In a further assay the test system is S. aureus. The assay is described as follows: Microbroth dilution MIC assay. Format: cell-based, Staphylococcus aureus. As for the experimental part: as §1, §2
(§5) Colonies are selected from plates and used to prepare an inoculum equivalent to a 0.5 McFarland standard in Trypticase Soy Broth. An inoculum with a density equivalent to a 1.0 McFarland standard is prepared for Streptococcus pneumoniae. The inoculum density for all cultures is −10^8 CFU/mL in TSB. This TSB inoculum is diluted 1:10 in sterile saline (4 mL inoculum+36 mL saline; equivalent to −10^7 CFU/mL) and kept on ice until used to inoculate microtiter plates.
All wells of 96-well microtiter plates (Dynex) are filled with 100 TL media. Haemophilus test media plates are prepared to test Haemophilus influenzae; Cation-Adjusted Mueller Hinton+5% Lysed Horse Blood plates are prepared to test Streptococcus pneumoniae; Cation-Adjusted Mueller Hinton Broth plates are prepared to test Enterococcus, Staphylococcus aureus, Escherichia coli and Bacillus subtilis. RPMI 1640 is used to test Candida The MICs against S. aureus Smith are determined in Cation-adjusted Mueller Hinton and in Cation-Adjusted Mueller Hinton+50% Human Serum to determine if the compound is inactivated by some component in serum (indicated by an increase in the MIC). Filled plates are wrapped in plastic bags (to minimize evaporation), stored frozen and thawed before use.
The compounds are prepared on a weight basis. Compounds are prepared to 2 mg/mL in 100% DMSO, then diluted to 1 mg/mL in a 1:1 dilution of DMSO/2×CAMHB (final concentration=50% DMSO/50% CAMHB). […]
as §4

In the next assay the test system is E. faecalis. The assay is described as follows: Microbroth dilution MIC assay. The following applies: various strains of E. faecalis. It counts as cell-based, Enterococcus faecalis. As for the experimental part:
as §1, §2, §3, §4

A further assay deals with E. faecium. The assay is described as follows: Microbroth dilution MIC assay. Format: cell-based, Enterococcus faecium. As for the experimental part:
as §1, §2, §5
All wells of 96-well microtiter plates (Dynex) are filled with 100 TL media. […]
as §4

Assay [1] in a line: Microbroth dilution MIC assay, all test strains pooled. Format: cell-based. Conditions: range over all test strains, including resistant ones; NCCLS guidelines; read-out: minimum inhibitory concentration (MIC). As for the experimental part:
as §1, §2, §3, §4

For assay [2], the system named is vancomycin-resistant Enterococcus sp. (VRE). The assay can be described thus: Microbroth dilution MIC assay. It counts as cell-based. As for the experimental part:
as §1, §2, §3, §4

In another assay the test system is S. pneumoniae. The assay is described as follows: Microbroth dilution MIC assay. It counts as cell-based, Streptococcus pneumoniae. Conditions: various strains of S. pneumoniae. As for the experimental part: as §1, §2, §3, §4

Regarding `C[C@@]12C[C@]34C=CC(=O)[C@](C)(CCC(=O)Nc5c(O)ccc(C(=O)O)c5O)C3[C@@H](CC1C4)O2` (some centres unmarked) [Compound I], the antibacterial activity entry with E. coli, with B. subtilis, with S. epidermidis, in the assay on S. aureus (linezolid-resistant S. aureus), in the assay on S. aureus (macrolide-resistant S. aureus) and in the assay with S. aureus (methicillin-resistant S. aureus (MRSA)) was “demonstrates antibacterial activity” throughout. For the same compound, the antibacterial activity result (in the assay on S. aureus (various strains of S. aureus); in the assay on E. faecalis; in the assay with E. faecium (linezolid-resistant E. faecium); in the assay with E. faecium (multidrug-resistant E. faecium); in the assay with E. faecium (various strains of E. faecium); in assay [2]) was “demonstrates antibacterial activity” in each case. In the assay on S. pneumoniae, the antibacterial activity entry is “demonstrates antibacterial activity”. Further, the MIC in assay [1] is 0.1 to 32 µg/mL (≈ 0.227 to 72.5 µM).
